What was measured:
[1] = system: SARS-CoV-2; design: method as in Wang et al., 2020; Zang et al., 2020; Zu et al., 2020; conditions: by depleting membrane cholesterol, ref Wang et al., 2020, Zang et al., Zu et al.; cited from earlier work
[2] = system: gastrocnemius muscle; conditions: ip, 50 mg/kg, 120 h
[3] = system: FAPs; test: Cell viability assay (cell counting kit-8) of senescent and non-senescent FAPs treated with inhibitors; type: cell-based, mouse; conditions: for IC50: Mus musculus, FAPs
Experimental: (§1) Figure 3 25HC is a senolytic in multiple muscle cell types (A) Targets, compounds, and mechanisms. (B) Timeline of cell viability assay with inhibitors. Cells were pre-cultured for 24 h, treated with Doxo for 24 h, and then treated with inhibitors. Cell viability was analyzed from day 0–7. (C–E) Effects of inhibitors on viability of FAPs, SCs, and HSMMs. Cells were treated with inhibitors at the indicated concentrations. Cell viability was analyzed on day 3 (HSMMs) or 5 (FAPs and SCs). Blue and red dots indicate non-senescent (NS) and senescent (SEN), respectively. The average value at 0 μM for each group was set at 100% cell viability. p values versus NS were obtained using unpaired two-tailed Student’s t test. ∗p < 0.05, ∗∗p < 0.01, and ∗∗∗p < 0.001.
Figure 4 EC50 fitted curves (triplicates) of inhibitor effects at 3 and 7 days in FAPS and SCs EC50 was defined as the concentration of inhibitors that provokes a response halfway between baseline and maximum senolytic activity. EC50 values were determined by four- parameter logistic modeling using GraphPad Prism 8.0.
Hind limb muscles were digested in DMEM containing 0.5% (w/v) collagenase type II (Worthington) for 90 min at 37 °C with trituration and passed through a 40-μm nylon mesh. Erythrocytes were eliminated by treating with BD Pharm Lyse (BD Biosciences). Cells were resuspended in a washing buffer of PBS with 2% FBS and stained with antibodies for 30 min at 4 °C as described ([Kamizaki et al., 2017]). FAPs and SCs were isolated from the suspension by FACS (Aria II, BD Biosciences) using anti-CD31, CD45, Sca-1, PDGFR and VCAM1 antibodies. FAPs were identified as Sca1/PDGFR-positive and CD31-, CD45- and VCAM1-negative cells ([Uezumi et al., 2010]). SCs were identified as VCAM1-positive and CD31-, CD45-, Sca-1 and PDGFR-negative cells ([Liu et al., 2015]).
(§2) All experiments were performed in incubators at 37 °C, 3% O2 and 5% CO2. Senescence was induced by treatment with either Doxo (250 nM for 24 h) ([Demaria et al., 2017]) or X-irradiation (10 Gy) ([Limbad et al., 2020]). For cell culture studies using 25HC, it was used at the indicated concentrations in the media.
(§3) FAPs and SCs were cultured on Matrigel-coated dishes (BD Biosciences) in growth medium (GM) consisting of DMEM plus 10% FBS, 1% penicillin-streptomycin and 10% MyoCult (STEMCELL Technologies) for 7 days. Human myogenic cell HSMMs (Lonza) were maintained according to the manufacturer’s instructions with SkGM-2 medium (Lonza).
(§4) Cell viability was assessed using a cell counting kit-8 from Dojindo Molecular Technologies, Inc (Cat CK04-20). Cells were incubated with culture media + 10% kit cell viability reagent, 150 μL/well in 96-well plates for 2 h. The supernatant was transferred to a new 96-well plate and absorbance read at 450 nm as recommended in the product datasheet.

[4] = system: human renal proximal tubule epithelial cells (hRPTECs); test: Cell viability assay of NS and Doxo- or IR-induced senescent hRPTECs treated with 25HC; type: cell-based; conditions: 5 μM after 9 days; Doxo or IR induced senescence
Experimental: Figure 7 25HC treatment timeline and its effects on NS and SEN hCMECs, hLSCs, hRPTECs, and hACs All cell types were treated with either DMSO, 250 nM Doxo or 10-Gy IR at the times shown. 25HC treatment was started 24 h after Doxo or IR treatment. Cell viability was measured every 3–5 days for 15 days. Optimal treatment times for maximum senolysis are shown for each cell type: day 15 for hCMECs, day 3 for hLSCs, day 9 for hRPTECs and day 12 for hACs. For qRT-PCR: mean ± SE, n =4, ∗p< 0.05, ∗∗p< 0.01, ∗∗∗p<0.001, ∗∗∗∗p<0.0001 by Dunnett’s multiple comparisons test vs DMSO or NS, For cell viability assays: mean ± SE, n =3, ∗∗p< 0.01, ∗∗∗p<0.001, ∗∗∗∗p<0.0001 vs 0 mM by student’s t test.
All experiments were performed in incubators at 37 °C, 3% O2 and 5% CO2. […]
Cell viability was assessed using a cell counting kit-8 from Dojindo Molecular Technologies, Inc (Cat CK04-20). […] The supernatant was transferred to a new 96-well plate and absorbance read at 450 nm as recommended in the product datasheet. […]
Supplementary Fig. 12 (related to Fig. 7) | 25HC treatment of human renal epithelial cells (a) 25HC effects on DMSO- or Doxo-treated hRPTECs at various times. […] Cel l vi abi l i ty was measured every 3–5 days until 15 days. […]
Cells were NS or treated with 10-Gy X-rays. […] Cell viability was measured every 3–5 days until 15 days. […]

[5] = system: human skeletal muscle myoblasts (HSMMs); test: Cell viability assay (cell counting kit-8) of senescent and non-senescent HSMMs treated with inhibitors; type: cell-based; conditions: for IC50: Homo sapiens, Myoblast, HSMM
Experimental: as §1, §2, §3, §4

Compound: C[C@H](CCCC(C)(C)O)[C@H]1CC[C@H]2[C@@H]3CC=C4C[C@@H](O)CC[C@]4(C)[C@H]3CC[C@]12C [25HC, 25-hydroxycholesterol]
- SARS-CoV-2 replication [1]: inhibits SARS-CoV-2 replication
- muscle mass restored (gastrocnemius wet weight normalized to body weight) [2]: ~23%
- viability of senescent versus non-senescent FAPs ([3]; Doxo-induced senescence, viability on day 5, 25HC at concentrations between 0.1 and 1 μM): specifically decreased the viability of senescent FAPs
- IC50 ([3]; 72 h, 3 days in culture): 1700 nM
- IC50 ([3]; 168 h, 7 days in culture): 1200 nM
- senolysis in hRPTECs [4]: induced significant senolysis
- viability of senescent versus non-senescent HSMMs ([5]; Doxo-induced senescence, viability on day 3): significantly decreased cell viability
- IC50 ([5]; 72 h, 3 days in culture): 7200 nM
- IC50 ([5]; 168 h, 7 days in culture): 3700 nM
